Experiments:
STARD3 = biological target: T1, STARD3 (Homo sapiens, UniProt Q14849); test: Differential scanning fluorimetry (DSF), STARD3; type: binding; settings: for STARD3 (DSF) ΔTm / ΔTm at 10 µM: single dose, Dose = 10 µM; for Kd: apparent Kd, mean of three experiments run in technical duplicates, read-out: STARD3 Kd,app (DSF); for STARD3 (DSF) ΔTmmax: maximal thermal shift
T1 construct: STARD3(216-444); made in house; host or cells: E. coli BL21(DE3)
T1 sequence (Q14849 216-444): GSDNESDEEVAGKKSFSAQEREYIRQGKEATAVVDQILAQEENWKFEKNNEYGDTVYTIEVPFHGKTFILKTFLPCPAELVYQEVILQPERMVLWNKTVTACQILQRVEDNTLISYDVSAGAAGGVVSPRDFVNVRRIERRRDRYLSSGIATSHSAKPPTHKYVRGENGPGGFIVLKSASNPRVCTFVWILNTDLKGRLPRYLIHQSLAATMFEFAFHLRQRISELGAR
Source text: (§1) Protein expression constructs
(§2) Human ASTER domains of Aster-A(359-547), -B(364-552) and -C(318-504) were subcloned into a pGEX-6p-2rbs vector, thus introducing the cloning artifact ‘GPLGS’.3 The pGEX-6P-1-GST-OSBP(377- […]
(§3) a gift from James H. Hurley (University of California).4 The pHIS_2His6_Thrombin_STARD4(2-205;C75S) plasmid was a gift from Young Jun Im (Chonnam National University).5 STARD5A was a gift from Nicola Burgess-Brown (Addgene plasmid #42392; http://n2t.net/addgene:42392; […]
(§4) Protein expression and purification […]
(§5) vectors including an N-terminal PreScission-cleavable glutathione S-transferase (GST)-tag were expressed in Escherichia coli (E. coli) OverExpress C41 in Terrific Broth (TB) medium for 16 h at 18 °C after the induction with 0.1 mM isopropyl β-D-1-thiogalactopyranoside (IPTG). Cells were harvested at 3500 × g for 15 minutes and lysed by sonication in buffer containing 50 mM HEPES pH 7.5, 300 mM NaCl, 10 %v/v glycerol, 5 mM dithiothreitol (DTT), 0.1 %v/v Triton X-100 and protease inhibitor mix HP plus (Serva). The lysate was purified by affinity chromatography on a GSTrap FF column (Cytiva) using an ÄKTA Start (Cytiva) in buffer containing 50 mM HEPES pH 7.5, 300 mM NaCl, 10 %v/v glycerol, 5 mM DTT and 0.01 %v/v Triton X-100. The GST-tag was cleaved overnight on the column at 4 °C. The Aster sterol binding domains were further purified by size-exclusion chromatography (SEC) on a HiLoad 16/600 Superdex 75 pg (Cytiva) in buffer containing 20 mM HEPES pH 7.5, 300 mM NaCl, 10 %v/v […]
(§6) STARD5(6-213) harboring an N-terminal His6-Tag were expressed in E. coli BL21(DE3) in Luria-Bertani Broth (LB) medium for approximately 16 h at 18 °C after induction with 0.15 mM IPTG. Cells were harvested at 3500 × g for 15 minutes and lysed by sonication in buffer containing 50 mM HEPES pH 7.5, 150 mM NaCl, 5 %v/v glycerol, 5 mM DTT, 0.1 %v/v Triton X -100 and ethylenediaminetetraacetic acid (EDTA)-free protease inhibitor cocktail (Sigma-Aldrich). The cleared lysate was purified by affinity chromatography on a Ni-NTA Superflow Cartridge (Qiagen) using an ÄKTA Start (Cytiva) in buffer containing 50 mM HEPES pH 7.5, 150 mM NaCl, 5 %v/v glycerol, 5 mM DTT. START domains were eluted by using elution buffer containing 50 mM HEPES pH 7.5, 150 mM NaCl, 5 %v/v glycerol, 5 mM DTT and 500 mM imidazole. Proteins were further purified by SEC on a HiLoad 16/600 Superdex 75 pg (Cytiva) in buffer containing 20 mM HEPES pH 7.5, 150 mM NaCl, 5 %v/v glycerol and 2 mM DTT.
(§7) The ORP domain of human OSBP(377-807) in the pGEX-6p-1 vector with an N-terminal PreScission-cleavable GST-tag was expressed in E. coli OverExpress C41 in LB medium for 16 h at 18 °C after induction with 0.1 mM IPTG. Cells were harvested at 3500 × g for 15 minutes and lysed by sonication in buffer containing 20 mM HEPES pH 7.5, 300 mM NaCl, 10 %v/v glycerol, 5 mM DTT, 0.1 %v/v Triton X-100 and EDTA-free protease inhibitor cocktail (Sigma-Aldrich). The cleared lysate was purified by affinity chromatography on a GSTrap HF column (Cytiva) using an ÄKTA Start (Cytiva) in buffer containing 20 mM HEPES pH 7.5, 300 mM NaCl, 10 %v/v glycerol, 5 mM DTT. OSBP(377 -807) was eluted by using elution buffer containing 20 mM HEPES pH 7.5, 300 mM NaCl, 10 %v/v glycerol, 5 mM DTT and 10 mM reduced glutathione. Proteins were further purified by SEC on a HiLoad 16/600 Superdex 75 pg (Cytiva) using an ÄKTA Explorer (Cytiva) in buffer containing 20 mM HEPES pH 7.5, 150 mM NaCl, 10 %v/v glycerol and 2 mM DTT.
(§8) The ORP domains of human ORP1(534-950) in pET24b(+) and ORP2(49-480) in the pET24b(+) vector including an N-terminal His6-Tag were expressed in E. coli BL21(DE3) in TB medium for approximately 16 h at 18 °C after induction with 0.1 mM IPTG. Cells were collected at 3500 × g for 15 minutes and lysed by sonification in buffer containing 10 mM Tris-HCl pH 8, 300 mM NaCl, 5 % glycerol, 2 mM DTT, 0.1 % Triton X-100 and EDTA-free protease inhibitor cocktail (Sigma-Aldrich). The cleared […]

OSBP = biological target: T2, OSBP (Homo sapiens, UniProt P22059); test: Fluorescence polarisation (FP) competition with NBD-cholesterol, OSBP; type: binding; settings: single dose; for OSBP (FP) inhibition: Dose = 10 µM
T2 construct: OSBP(377-807); host or cells: E. coli OverExpress C41
T2 sequence (P22059 377-807): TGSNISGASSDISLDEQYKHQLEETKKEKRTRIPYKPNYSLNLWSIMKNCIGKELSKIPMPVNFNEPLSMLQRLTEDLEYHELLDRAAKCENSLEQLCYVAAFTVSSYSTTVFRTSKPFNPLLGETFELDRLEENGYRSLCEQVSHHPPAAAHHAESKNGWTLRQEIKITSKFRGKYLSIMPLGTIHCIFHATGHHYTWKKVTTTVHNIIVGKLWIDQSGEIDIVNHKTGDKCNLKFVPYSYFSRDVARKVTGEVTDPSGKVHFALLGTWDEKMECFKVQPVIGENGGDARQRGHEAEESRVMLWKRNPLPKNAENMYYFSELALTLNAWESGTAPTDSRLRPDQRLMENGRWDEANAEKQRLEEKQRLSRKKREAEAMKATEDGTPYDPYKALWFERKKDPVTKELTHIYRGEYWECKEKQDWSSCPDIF
Source text: as §1, §2, §3, §4, §5, §6, §7, §8

Row | SMILES | STARD3 (DSF) ΔTm (STARD3) [°C] | OSBP (FP) inhibition (OSBP) [%] | Kd (STARD3) [µM] | ΔTm at 10 µM (STARD3) [°C] | inhibition at 10 µM (OSBP) [%] | STARD3 (DSF) ΔTmmax (STARD3) [°C]
1 | Cc1nc2c(s1)CC[C@@H]1C[C@H](O)CC[C@]21C [Compound 8b] | 0.0139 | -1.3 | – | – | – | –
2 | CC(C)Oc1ccc(C(=O)Nc2nc3c(s2)CN(C(=O)OC(C)(C)C)CC3)cc1 [Autogramin-2, reference compound] | 0.027 | 9.0 | > 30 | – | – | –
3 | CCOC(=O)c1ccc2[nH]c3c(c2c1)CC[C@@H]1C[C@H](O)CC[C@]31C [Compound 10k] | 0.08 | 2.0 | – | – | – | –
4 | C[C@]12CC[C@@H](O)C[C@H]1CCC(=O)c1cc(C(F)(F)F)ccc1NC2=O [Compound 11e] | – | – | – | -0.0434 | 15 | –
5 | CC(C)(C)OC(=O)N1CCN(c2ccc3c(c2)C24CCC5CC(CCC52C)OC4=N3)CC1 (centres unmarked) [Compound 19e] | – | – | 9.51 | 4.3 | 17.2 | 8.0
6 | C[C@]12CC[C@@H](O)C[C@H]1CCc1c2[nH]c2ccc(Br)cc12 [Compound 10b] | -0.0462 | -12.0 | – | – | – | –
7 | CC12CCC3CC1CCC21C(=Nc2ccc(Br)cc21)O3 (single isomer, unassigned; (+)) [(+)-15b] | – | – | > 100 | 0.244 | 13.1 | 0.44
8 | CC12CCC3CC1CCC21C(=Nc2ccc(N4CCNCC4)cc21)O3 (centres unmarked) [Compound 22] | – | – | – | 0.0739 | 6.9 | –
9 | C[C@@]12CC[C@H]3C[C@@H]1CC[C@]21C(=Nc2ccc(Br)cc21)O3 [(−)-15b] | – | – | > 100 | 0.5 | 2.8 | 0.7
10 | C[C@]12CC[C@@H](O)C[C@H]1CCc1c2[nH]c2ncccc12 [Compound 3] | – | – | – | -0.0743 | 2.5 | –
11 | Cc1c2c(nc3cc(Br)ccc13)[C@@]1(C)CC[C@@H](O)C[C@H]1CC2 [Compound 2c] | -0.168 | -4.0 | – | – | – | –
12 | CC12CCC(O)CC1CCc1c2[nH]c2ccc(C(F)(F)F)cc12 (centres unmarked) [Compound 10g] | – | – | – | 0.227 | -8 | –
13 | C[C@]12CC[C@@H]3C[C@H]1CC[C@@]21C(=Nc2ccccc21)O3 [Compound 15a] | – | – | – | -0.061 | 0 | –
14 | CC12CCC3CC1CCC21C(=Nc2ccc(NCc4ccccc4)cc21)O3 (centres unmarked) [Compound 19b] | – | – | 11.3 | 3.3 | 23 | 6.3
15 | COc1ccc2c(c1)[C@]1(O)CC[C@@H]3C[C@H](O)CC[C@]3(C)C1=N2 [Compound 14b] | – | – | – | 0.0447 | 9.3 | –
16 | C[C@]12CC[C@@H](O)C[C@H]1CCc1c2[nH]c2c(F)cc(Cl)cc12 [Compound 10i] | – | – | – | 0.0372 | -9.3 | –

Row | SMILES | STARD3 (DSF) ΔTm (STARD3) [°C] | OSBP (FP) inhibition (OSBP) [%] | Kd (STARD3) [µM] | ΔTm at 10 µM (STARD3) [°C] | inhibition at 10 µM (OSBP) [%] | STARD3 (DSF) ΔTmmax (STARD3) [°C]
17 | C[C@]12CC[C@@H](O)C[C@H]1CCc1sc(-c3cccnc3)nc12 [Compound 8c] | 0.345 | 17.3 | – | – | – | –
18 | COc1ccc2[nH]c3c(c2c1)CC[C@@H]1C[C@H](O)CC[C@]31C [Compound 10f] | – | – | – | -0.0471 | -6.7 | –
19 | Cc1c2c(nc3ccccc13)[C@@]1(C)CC[C@@H](O)C[C@H]1CC2 [Compound 2a] | – | – | – | -0.0816 | 10 | –
20 | C[C@]12CC[C@@H]3C[C@H]1CC[C@@]21C(=Nc2ccc(N4CCN(Cc5ccncc5)CC4)cc21)O3 [Compound 24] | – | – | 14.9 | 3.8 | 11 | 6.7
21 | C[C@]12CC[C@@H](O)C[C@H]1CCc1c2nc2ccccc2c1-c1ccccc1 [Compound 2b] | 0.0566 | -12.0 | – | – | – | –
22 | COc1ccc(-c2nc3c(s2)CC[C@@H]2C[C@H](O)CC[C@]32C)cc1 [Compound 8d] | – | – | – | 0.5 | 2.6 | –
23 | COc1ccc(-c2ccc3c(c2)C24CCC5CC(CCC52C)OC4=N3)cc1 (centres unmarked) [Compound 21b] | – | – | 27.9 | 3.6 | 17.5 | 5.6
24 | Cc1cc(C)c2c(c1)N=C1[C@@]2(O)CC[C@@H]2C[C@H](O)CC[C@]12C [Compound 14c] | – | – | – | 0.0424 | 2.7 | –
25 | C[C@]12CC[C@@H]3C[C@H]1CC[C@@]21C(=Nc2ccc(C(F)(F)F)cc21)O3 [Compound 15g] | – | – | – | 0.655 | 16 | –
26 | C[C@]12CC[C@@H](O)C[C@H]1CCc1[nH]c(-c3ccccc3)nc12 [Compound 9] | – | – | – | -0.0297 | 5 | –
27 | C[C@]12CC[C@@H](O)C[C@H]1CCc1sc(N)nc12 [Compound 8a] | – | – | – | 0.0829 | 18.6 | –
28 | C[C@]12CC[C@@H](O)C[C@H]1CCC[C@]21NC(=O)c2ccc(F)cc2N1 [Compound 5b] | 0.0138 | 24.6 | – | -0.121 | 8.2 | –
29 | COc1ccc2c(c1)[C@@]13CC[C@@H]4C[C@@H](CC[C@@]41C)OC3=N2 [Compound 15f] | – | – | – | 0.559 | 10 | –
30 | Cc1cc(C)c2c3c([nH]c2c1)[C@@]1(C)CC[C@@H](O)C[C@H]1CC3 [Compound 10j] | – | – | – | -0.108 | -16 | –
31 | Cc1cc(C)c2c(c1)NC(=O)[C@@]1(C)CC[C@@H](O)C[C@H]1CCC2=O [Compound 11g] | – | – | – | -0.0181 | -5.3 | –
